In publication PMC6658140 (ACS catalysis, 2019):

Columns and labels:
TropB [1] = molecular target: TropB (Talaromyces stipitatus, UniProt B8M9J8); assay: change in absorbance at […] nm; format: binding
TropB [2] = molecular target: TropB (Talaromyces stipitatus, UniProt B8M9J8, R206Q); assay: change in absorbance at […] nm; format: binding
Chain of TropB (Talaromyces stipitatus, UniProt B8M9J8, R206Q) (B8M9J8 whole entry R206Q): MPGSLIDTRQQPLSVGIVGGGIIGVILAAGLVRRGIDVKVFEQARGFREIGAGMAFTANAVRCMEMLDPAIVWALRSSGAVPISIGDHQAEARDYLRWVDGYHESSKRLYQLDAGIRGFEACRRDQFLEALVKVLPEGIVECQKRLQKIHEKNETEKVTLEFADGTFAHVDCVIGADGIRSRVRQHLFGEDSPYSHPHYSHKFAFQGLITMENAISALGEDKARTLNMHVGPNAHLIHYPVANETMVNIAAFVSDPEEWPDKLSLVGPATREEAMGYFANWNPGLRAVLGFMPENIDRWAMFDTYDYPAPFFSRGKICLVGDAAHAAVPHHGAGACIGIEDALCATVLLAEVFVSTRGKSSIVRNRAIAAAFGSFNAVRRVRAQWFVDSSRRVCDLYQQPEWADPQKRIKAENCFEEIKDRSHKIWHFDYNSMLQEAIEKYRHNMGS

Chain of TropB (Talaromyces stipitatus, UniProt B8M9J8) (B8M9J8 whole entry): as the sequence (B8M9J8 whole entry R206Q) above, with Q206R counted along it

For `Cc1cc(O)c(C)c(O)c1C=O` [compound 1, 3-methylorcinaldehyde], the Kd (TropB [1]) was 21 ± 2 µM and the Kd (TropB [2]) was 32 ± 4 µM.
